We go through two compounds from patent US8921383B2, “Thiazolopyrimidine compounds” (Hoffmann-La Roche Inc., priority 2011, dated 2014).

pIC50: −log10 of the molar value.

The target in the test is T1, purified recombinant human SYK360-635 (Homo sapiens, UniProt P43405).
T1 construct: truncated construct of Spleen Tyrosine Kinase aa 360-635; GST; made in house
Kind of test: SYK kinase assay: 33P γATP incorporation into biotinylated peptide substrate, IC50 determination. In kind it is biochemical. Conditions: SYK 0.5 nM, ATP 20 μM, DYE peptide 5 μM, 30° C. 15 min; read-out: IC50 h-syk-gst-sf9-c (inactive-dephosphorylated). The protocol:
Determination of IC50 of Spleen Tyrosine Kinase (SYK) Inhibition:
SYK kinase assay is a standard kinase assay adapted to a 96 well plate format. This assay is performed in 96-well format for IC50 determination with […] which represented 10 half log dilutions and a 40 μL reaction volume. The assay measures the incorporation of radiolabeled ^33P γATP into an N-terminally biotinylated peptide substrate, derived from naturally occurring phosphoacceptor consensus sequence (Biotin-11aa DY*E). Phosphorylated products were detected upon termination of reactions with EDTA and the addition of Streptavidin coated beads.
Assay plates: 96-well MultiScreen 0.65 um filter plates (Millipore Cat. No.: MADVNOB10)
BSA: Bovine Serum Albumin Fraction V, fatty acid free (Roche Diagnostics GmbH, Cat. No. 9100221) diluted to a final concentration of 0.1%
Assay Dilution Buffer (ADB): 50 mM HEPES, 0.1 mM EGTA, 0.1 mM Na Vanadate, 0.1 mM β-glycerophosphate, 10 mM MgCl2, 1 mM DTT, 0.1% BSA, pH 7.5
Bead wash buffer: 10 g/L PBS (Phosphate buffered saline) with 2M NaCl+1% phosphoric acid.
DMSO and the mixture was incubated for 10 min at RT.
The kinase reaction was initiated by the addition of 10 μL 4× substrate cocktail containing the DYE peptide substrate [0 or 5 μM], ATP [20 μM] and ^33PγATP [2 μCi/r×n]. After incubation at 30° C. for 15 min, the reaction was terminated by the transfer of 25 μL of the reaction sample to a 96 well 0.65 μm Millipore MADVNOB membrane/plate containing 200 μL 5 mM EDTA and 20% Streptavidine coated beads in PBS.
After the last wash membrane/plates were transferred to an adaptor plate, heat dried for 15 min at 60° C., and 50 μL scintillation cocktail was added to each well and 4 h later the amount of radioactivity was counted in a top counter.

In general, pIC50 refers to −log10 of the IC50, conventionally taken in molar units. Turning to `COc1ccc(Nc2nc(-c3ccc(C(=O)NCCN(C)C)cc3)nc3scnc23)cc1OC` [Compound I-66, 4-(7-(3,4-Dimethoxyphenylamino)thiazolo[5,4-d]pyrimidin-5-yl)-N-(2-(dimethylamino)ethyl)benzamide], the pIC50 was 6.56.

On to `COc1ccc(Nc2nc(-c3cccc(C(N)=O)c3)nc3scnc23)cc1OC` [Compound I-68, 3-[7-(3,4-Dimethoxy-phenylamino)-thiazolo[5,4-d]pyrimidin-5-yl]-benzamide], for which the negative logarithm of the IC50 (pIC50) was 6.63.
